Experimental data published in ChEMBL document CHEMBL1122818, “Synthesis and biological activity of certain 6-substituted and 2,6-disubstituted 2'-deoxytubercidins prepared via the stereospecific sodium salt glycosylation procedure” (J Med Chem, 1985).

Tests used:
[1] = system: Vaccinia virus; test: In vitro antiviral activity was tested against, vaccinia virus (VV); type: functional; conditions: Orthopoxvirus vaccinia; read-out: ED50 (the source's name)
[2] = system: Human alphaherpesvirus 2; test: In vitro antiviral activity was tested against, herpes simplex type 2 virus (HSV-2); type: functional; conditions: read-out: ED50 (the source's name)
[3] = Toxic level was evaluated; type: ADME
[4] = system: Human respirovirus 3; test: In vitro antiviral activity was tested against, parainfluenza type 3 (Para 3) virus; type: functional; conditions: read-out: ED50 (the source's name)
[5] = system: Measles morbillivirus; test: In vitro antiviral activity was tested against, measles virus; type: functional; conditions: read-out: ED50 (the source's name)
[6] = system: Measles morbillivirus; test: In vitro antiviral activity was tested against measles virus; type: functional; conditions: read-out: ED50 (the source's name)
[7] = system: Human respirovirus 3; test: In vitro antiviral activity was tested against, parainfluenza type 3 (Para 3) virus; conditions: read-out: ED50 (the source's name)
[8] = system: Human alphaherpesvirus 2; test: In vitro antiviral activity was tested against herpes simplex type 2 virus (HSV-2); type: functional; conditions: read-out: ED50 (the source's name)
[9] = system: Vaccinia virus; test: In vitro antiviral activity was tested against vaccinia virus (VV); type: functional; conditions: Orthopoxvirus vaccinia; read-out: ED50 (the source's name)
[10] = system: P388; test: In vitro inhibitory effect was tested for cytostatic activity on the growth of lymphoid neoplasm P388 leukemic cell lines; type: functional; conditions: Mus musculus, read-out: ID50 (the source's name)
[11] = system: L1210; test: In vitro inhibitory effect was tested for cytostatic activity on the growth of murine leukemic L1210 cell lines; type: functional; conditions: Mus musculus, read-out: ID50 (the source's name)
[12] = Toxic level was evaluated; b=Too insoluble to test; type: ADME
[13] = system: Measles morbillivirus; test: In vitro antiviral activity was tested against, measles virus; b=Too insoluble to test; type: functional, organism-based
[14] = system: Human respirovirus 3; test: In vitro antiviral activity was tested against, parainfluenza type 3 (Para 3) virus; b=Too insoluble to test; type: functional, organism-based
[15] = system: Vaccinia virus; test: In vitro antiviral activity was tested against, vaccinia virus (VV); b=Too insoluble to test; type: functional, organism-based; conditions: Orthopoxvirus vaccinia
[16] = system: Human alphaherpesvirus 2; test: In vitro antiviral activity was tested against, herpes simplex type 2 virus (HSV-2); b=Too insoluble to test; type: functional, organism-based
[17] = Toxic level was evaluated; None; type: ADME

Q: For OC[C@H]1O[C@@H](n2ccc3c(S)ncnc32)C[C@@H]1O, which EC50 [1] is on record?
A: 1100 µM

Q: And the EC50 [2]?
A: 160 µM

Q: What about the Toxic level [3] of the same compound?
A: 5 mM

Q: What about the EC50 [4] of the same compound?
A: > 5000 µM

Q: And the EC50 [5]?
A: 27 µM

Q: For Cc1cc2cncnc2n1[C@H]1C[C@H](O)[C@@H](CO)O1, which EC50 [6] is on record?
A: 300 µM

Q: What about the EC50 [7] of the same compound?
A: 1100 µM

Q: What about the EC50 [8] of the same compound?
A: 74 µM

Q: What about the Toxic level [3] of the same compound?
A: 5 mM

Q: What about the EC50 [9] of the same compound?
A: 1000 µM

Q: Which EC50 [1] does the source give for Cc1nc(N)c2ccn([C@H]3C[C@H](O)[C@@H](CO)O3)c2n1 here?
A: 3100 µM

Q: And the EC50 [2]?
A: 1600 µM

Q: What about the Toxic level [3] of the same compound?
A: 1.6 mM

Q: What about the EC50 [4] of the same compound?
A: > 5000 µM

Q: And the EC50 [5]?
A: 920 µM

Q: Which EC50 [1] does the source give for Cc1cc2c(N)ncnc2n1[C@H]1C[C@H](O)[C@@H](CO)O1 here?
A: 1000 µM

Q: What about the EC50 [2] of the same compound?
A: 2100 µM

Q: And the Toxic level [3]?
A: 5 mM

Q: And the EC50 [4]?
A: 500 µM

Q: What about the EC50 [5] of the same compound?
A: 500 µM

Q: With OC[C@H]1O[C@@H](n2ccc3c(Cl)ncnc32)C[C@@H]1O as the compound, how does the EC50 [1] read?
A: > 5000 µM

Q: What about the EC50 [2] of the same compound?
A: 650 µM

Q: What about the Toxic level [3] of the same compound?
A: 1.6 mM

Q: What about the EC50 [4] of the same compound?
A: 960 µM

Q: What about the EC50 [5] of the same compound?
A: 89 µM

Q: And the IC50 [10]?
A: 73 µM

Q: What about the IC50 [11] of the same compound?
A: 59 µM

Q: Which results are given for Cc1nc(N)c2cc(Cl)n([C@H]3C[C@H](O)[C@@H](CO)O3)c2n1?
A: EC50 [1]: 840 µM; EC50 [2]: 500 µM; Toxic level [3]: 0.5 mM; EC50 [4]: > 1600 µM; EC50 [5]: 360 µM

Q: Which EC50 [1] does the source give for Nc1ncnc2c1cc(Cl)n2[C@H]1C[C@H](O)[C@@H](CO)O1 here?
A: 330 µM

Q: What about the EC50 [2] of the same compound?
A: 1100 µM

Q: What about the Toxic level [3] of the same compound?
A: 1.6 mM

Q: What about the EC50 [4] of the same compound?
A: 1600 µM

Q: And the EC50 [5]?
A: 360 µM

Q: What does the source list for Nc1nc(Cl)nc2c1ncn2[C@H]1C[C@H](O)[C@@H](CO)O1 [CLADRIBINE]?
A: EC50 [1]: 5 µM; EC50 [2]: 5 µM; Toxic level [3]: 0.005 mM; EC50 [4]: > 500 µM; EC50 [5]: > 500 µM; IC50 [10]: 0.032 µM; IC50 [11]: 0.026 µM

Q: What does the source list for CSc1nc(Cl)c2cc(C)n([C@H]3C[C@H](O)[C@@H](CO)O3)c2n1?
A: Toxic level [12]: Too insoluble; ED50 [13]: Too insoluble; ED50 [14]: Too insoluble; ED50 [15]: Too insoluble; ED50 [16]: Too insoluble

Q: With CSc1nc(N)c2cc(C)n([C@H]3C[C@H](O)[C@@H](CO)O3)c2n1 as the compound, how does the EC50 [1] read?
A: 1000 µM

Q: And the EC50 [2]?
A: 1300 µM

Q: What about the Toxic level [3] of the same compound?
A: 1.6 mM

Q: What about the EC50 [4] of the same compound?
A: > 5000 µM

Q: What about the EC50 [5] of the same compound?
A: 250 µM

Q: Which EC50 [1] does the source give for OC[C@H]1O[C@@H](n2ccc3cncnc32)C[C@@H]1O here?
A: > 5000 µM

Q: What about the EC50 [2] of the same compound?
A: 1400 µM

Q: And the Toxic level [3]?
A: 5 mM

Q: What about the EC50 [4] of the same compound?
A: > 5000 µM

Q: And the EC50 [5]?
A: 250 µM

Q: Which EC50 [1] does the source give for Nc1nc(Cl)nc2c1ccn2[C@H]1C[C@H](O)[C@@H](CO)O1 here?
A: 1100 µM

Q: And the EC50 [2]?
A: > 5000 µM

Q: And the Toxic level [3]?
A: 0.5 mM

Q: And the EC50 [4]?
A: > 5000 µM

Q: And the EC50 [5]?
A: > 5000 µM

Q: Which results are given for CSc1nc(N)c2cc(Cl)n([C@H]3C[C@H](O)[C@@H](CO)O3)c2n1?
A: EC50 [1]: > 500 µM; EC50 [2]: 580 µM; Toxic level [3]: 0.5 mM; EC50 [4]: 340 µM; EC50 [5]: 100 µM

Q: What does the source list for Nc1ncnc2c1ccn2[C@H]1C[C@H](O)[C@@H](CO)O1 [2'-Deoxytubercidin]?
A: EC50 [1]: 160 µM; EC50 [2]: 50 µM; Toxic level [3]: 1.6 mM; EC50 [4]: 660 µM; EC50 [5]: 210 µM; IC50 [10]: 49 µM; IC50 [11]: 80 µM

Q: Which EC50 [1] does the source give for NC(=O)c1ncn([C@@H]2O[C@H](CO)[C@@H](O)[C@H]2O)n1 [RIBAVIRIN] here?
A: 85 µM

Q: What about the Toxic level [17] of the same compound?
A: Non-toxic

Q: And the EC50 [2]?
A: 190 µM

Q: And the EC50 [4]?
A: 160 µM

Q: What about the EC50 [5] of the same compound?
A: 30 µM

Q: For CSc1ncc2cc(C)n([C@H]3C[C@H](O)[C@@H](CO)O3)c2n1, which EC50 [1] is on record?
A: 840 µM

Q: And the EC50 [2]?
A: 2900 µM

Q: What about the Toxic level [3] of the same compound?
A: > 5 mM

Q: What about the EC50 [4] of the same compound?
A: 1100 µM

Q: What about the EC50 [5] of the same compound?
A: 95 µM
